These results are taken from PubChem BioAssay (NCI).

Test systems include SK-MEL-28 melanoma; UACC-62 melanoma; NCI-H460 lung; SK-MEL-2 melanoma; RXF 393 renal; SNB-75 CNS; EKVX NSCLC; M14 melanoma; HL-60(TB) leukemia; SNB-19 CNS.
What all share (experiment): growth of human tumour cells (NCI), 48 h

Values joined by “and” are separate entries in the source; they are usually repeats but may differ in a detail not shown here. Equal values may be shown once.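 48-hour exposure; five concentrations; linearly interpolated endpoints. GI50 is the concentration that inhibits growth by half. TGI: concentration producing complete growth inhibition.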

Take `CC[CH2][Sn]([CH2]CC)([O]C(=O)Cc1ccc(F)cc1)[O][Sn]([CH2]CC)([CH2]CC)[O]C(=O)Cc1ccc(F)cc1`: the GI50 is 0.157 µM in the test on SK-MEL-28 melanoma; 0.172 µM in the test with UACC-62 melanoma; 1.34 µM in the test on NCI-H460 lung; 0.115 µM in the test with SK-MEL-2 melanoma; 0.0286 µM with RXF 393 renal; 0.27 µM with SNB-75 CNS. The GI50 was 0.569 µM in the test on EKVX NSCLC, 0.237 µM with M14 melanoma, 0.0888 µM in the test with HL-60(TB) leukemia and 0.443 µM with SNB-19 CNS. The TGI is 0.446 µM in the test with SK-MEL-28 melanoma; 0.524 µM in the test on UACC-62 melanoma; 2.7 µM in the test on NCI-H460 lung; 0.393 µM with SK-MEL-2 melanoma; 0.126 µM in the test on RXF 393 renal; 1.43 µM in the test on SNB-75 CNS. Besides, the TGI in the test with EKVX NSCLC was 1.99 µM; in the test on M14 melanoma it was 0.622 µM; in the test with SNB-19 CNS, 1.35 µM.
On to `CCCN1C(=O)CNC(=O)c2[nH]cnc21`, for which the TGI in the test on SK-MEL-28 melanoma, in the test on UACC-62 melanoma, in the test with NCI-H460 lung, with SK-MEL-2 melanoma, with RXF 393 renal and in the test with SNB-75 CNS was more than 100 µM throughout. For the same molecule, the TGI with EKVX NSCLC, in the test with M14 melanoma, with HL-60(TB) leukemia and in the test with SNB-19 CNS was more than 100 µM throughout.
Consider `O=C(Cc1ccccc1)NS(=O)(=O)c1ccccc1`, for which the TGI with SK-MEL-28 melanoma, in the test on UACC-62 melanoma, in the test with NCI-H460 lung, in the test with SK-MEL-2 melanoma, in the test on RXF 393 renal and with SNB-75 CNS was more than 100 µM in each case. The TGI in the test with EKVX NSCLC, in the test with M14 melanoma, in the test on HL-60(TB) leukemia and in the test on SNB-19 CNS was more than 100 µM each time.
Regarding `Nc1nc(-c2cccs2)cs1`, the TGI with SK-MEL-28 melanoma, in the test with UACC-62 melanoma, in the test with NCI-H460 lung, in the test with SK-MEL-2 melanoma, in the test on RXF 393 renal and in the test on SNB-75 CNS was more than 100 µM throughout. The TGI in the test on EKVX NSCLC, in the test on M14 melanoma, in the test with HL-60(TB) leukemia and in the test with SNB-19 CNS was more than 100 µM throughout.
As for `C[CH2][Sn]([CH2]C)([O]C(=O)c1ccc(F)cc1)[O][Sn]([CH2]C)([CH2]C)[O]C(=O)c1ccc(F)cc1`, the GI50 with SK-MEL-28 melanoma was 33.9 µM; in the test with UACC-62 melanoma, more than 100 µM; with NCI-H460 lung, more than 100 µM; in the test with SK-MEL-2 melanoma, 28.5 µM; in the test with RXF 393 renal, 15.7 µM; with SNB-75 CNS, 58.5 µM. Besides, the GI50 with EKVX NSCLC, with M14 melanoma, with HL-60(TB) leukemia and with SNB-19 CNS was more than 100 µM throughout. The TGI in the test with SK-MEL-28 melanoma is more than 100 µM; with UACC-62 melanoma, more than 100 µM; with NCI-H460 lung, more than 100 µM; in the test with SK-MEL-2 melanoma, 83.3 µM; with RXF 393 renal, 29.9 µM; with SNB-75 CNS, more than 100 µM. Also, the TGI with EKVX NSCLC, in the test with M14 melanoma, in the test with HL-60(TB) leukemia and with SNB-19 CNS was more than 100 µM in each case.
In the case of `COC(C)(C)[C@H](O)C(O)CC(C)[C@@H]1CCC23CC12CCC1[C@@]2(C)CCC(OC(C)=O)C(C)(C)C2CC(OC2OC(COC(C)=O)C(O)C(O)C2O)[C@]13C` (stereo partly specified), the GI50 in the test on SK-MEL-28 melanoma was 5.41 µM; in the test with UACC-62 melanoma it was 6.28 µM; in the test on NCI-H460 lung, 4.69 µM; in the test on SK-MEL-2 melanoma it was 4.34 µM; with SNB-75 CNS it was 4.32 µM; with EKVX NSCLC it was 10.9 µM. For the same molecule, the GI50 in the test on M14 melanoma was 3.58 µM; in the test on HL-60(TB) leukemia, 2.55 µM. Besides, the TGI in the test with SK-MEL-28 melanoma was 12.2 µM and 18.9 µM; in the test with UACC-62 melanoma, 9.47 µM and 19.2 µM; with NCI-H460 lung, 10.3 µM and 14.7 µM; in the test on SK-MEL-2 melanoma, 17.6 µM and 14.8 µM; with RXF 393 renal it was 11.8 µM; in the test on SNB-75 CNS, 11.3 µM and 17.1 µM. The TGI is 15.4 µM and 24.7 µM in the test on EKVX NSCLC; 9.78 µM and 14.2 µM with M14 melanoma; 3.09 µM and 6.18 µM in the test on HL-60(TB) leukemia; 14.5 µM and 20 µM in the test on SNB-19 CNS.
For `C=C(CN(C)C)C(=O)c1ccc(Oc2ccccc2)cc1`, the TGI in the test on SK-MEL-28 melanoma amounted to 17.4 µM; with UACC-62 melanoma it was 13 µM; with NCI-H460 lung, 51.6 µM; in the test on SK-MEL-2 melanoma, 19.6 µM; in the test on RXF 393 renal it was 7.17 µM; with SNB-75 CNS, 35.5 µM. Also, the TGI amounted to 44 µM in the test on EKVX NSCLC, 4.02 µM in the test with M14 melanoma, 3.46 µM in the test with HL-60(TB) leukemia and 28.8 µM with SNB-19 CNS.
Regarding `CCCCCCCCCCCCC(CCCCCCCCCCCC)OP(=O)(O)O`, the TGI in the test on SK-MEL-28 melanoma, with UACC-62 melanoma, in the test with NCI-H460 lung, in the test on SK-MEL-2 melanoma, in the test with RXF 393 renal and in the test with SNB-75 CNS was more than 100 µM in each case. The TGI with EKVX NSCLC, with M14 melanoma, in the test with HL-60(TB) leukemia and with SNB-19 CNS was more than 100 µM in each case.
For the molecule `Cc1ccc(NC(=O)CC2C(=O)Nc3ccccc3S2=O)c(C)c1` (stereo unspecified), the TGI in the test on SK-MEL-28 melanoma is more than 100 µM; in the test with UACC-62 melanoma it was 42.4 µM; with NCI-H460 lung it was more than 64.3 µM; in the test on SK-MEL-2 melanoma, 35.9 µM; with RXF 393 renal, 24.1 µM; in the test with SNB-75 CNS, 30 µM. Besides, the TGI in the test with EKVX NSCLC was more than 100 µM; in the test with M14 melanoma, 46.7 µM; in the test on HL-60(TB) leukemia it was 11 µM; with SNB-19 CNS, 30.8 µM.
Regarding `Cc1cc(N(CCOS(C)(=O)=O)CCOS(C)(=O)=O)ccc1C=Nc1ccc(-c2csc(-c3ccc(Br)cc3)n2)cc1`, the TGI with SK-MEL-28 melanoma turned out to be 99.6 µM; in the test with UACC-62 melanoma it was 22.3 µM; in the test with NCI-H460 lung it was 12.7 µM; in the test with SK-MEL-2 melanoma, 61.7 µM; in the test with RXF 393 renal, 6.55 µM; in the test with SNB-75 CNS it was 23.8 µM. Besides, the TGI in the test with EKVX NSCLC is 37.7 µM; in the test with M14 melanoma, 50.1 µM; in the test on HL-60(TB) leukemia it was 55.9 µM; in the test on SNB-19 CNS, more than 88.1 µM.
With `FC(F)(F)c1nc(-c2ccccc2)oc1Sc1oc(-c2ccccc2)nc1C(F)(F)F`, the TGI in the test with UACC-62 melanoma, in the test with NCI-H460 lung, in the test with SK-MEL-2 melanoma, with RXF 393 renal, in the test with SNB-75 CNS and in the test with EKVX NSCLC was more than 100 µM throughout. The TGI in the test on M14 melanoma, in the test with HL-60(TB) leukemia and in the test on SNB-19 CNS was more than 100 µM each time.
